Experimental data taken from PMC7237710, “Thanatin Impairs Lipopolysaccharide Transport Complex Assembly by Targeting LptC–LptA Interaction and Decreasing LptA Stability” (Frontiers in Microbiology, 2020).
In brackets after ≈: the same amount, converted by molar mass. Entries after “also recorded” stand apart in the source; their conditions may differ. Residues, ends and D or L forms follow the SMILES beside them.

Key:
[1] = tested on: E. coli and other Enterobacterial species; set-up: method as in Zhang et al., 2019; conditions: ref Zhang et al., 2019; cited from earlier work
LptC–LptA interaction = conditions: yeast two-hybrid system; ref Zhang et al., 2019; cited from earlier work
LptAm = conditions: SPR, Biacore T200, CM3 chip, HBS-N; peptide 0, 0.1, 1 μM; listed as Scr
Text: (§1) Escherichia coli LptC lacking the first 23 residues of the transmembrane domain was expressed from a plasmid (LptC pQESH, QIAGEN) with an N-terminal His-Tag and purified as described ([Laguri et al., 2017]). LptC was expressed in ^15N enriched deuterated medium with specific ^13C-^1H labeling of Isoleucines δ1 and Leucine and Valine proR methyl groups according to standard protocols ([Kerfah et al., 2015]) with NMRbio precursors^1. LptAm coding for residues 28–159 followed by a […] TAG in a pET21b vector was expressed and purified as described ([Laguri et al., 2017]). Both proteins were exchanged to 50 mM Na2HPO4 pH 8.0, 150 mM NaCl buffer.
(§2) Surface plasmon resonance (SPR) experiments were performed on a Biacore T200 with a CM3 chip. HBS-P+ and HBS-N buffers (GE Healthcare) were used for immobilization and interactions, respectively. 66 Resonance units (RUs) of LptAm were immobilized on a flow cell by the amine (EDC-NHS) coupling method followed by ethanolamine saturation, with a flow cell modified only with EDC-NHS-ethanolamine as reference for subtractions. For interactions, protein and ligands were diluted in HBS-N running buffer and regeneration between injections achieved with a 30 s pulse of 10 mM HCl. Sensorgrams shown were subtracted with the reference flow cell as well as with injection of buffer alone.

E. coli WT strain MG1655 = assay: MIC determination, WT strain MG1655; assay type: cell-based, Escherichia coli
Protocol: (§3) The minimal inhibitory concentration (MIC) values of thanatin, thanatin scramble, and vancomycin (as a positive control) were assessed with a protocol adapted from [Wiegand et al. (2008)] using 96-well microtiter plates. Stationary phase cultures of the E. coli WT strain MG1655 ([Blattner et al., 1997]), the permeabilized mutants AS19 ([Sekiguchi and Iida, 1967]) and NR698 ([Ruiz et al., 2005]), and the BACTH strain BTH101 ([Karimova et al., 1998]; [Ouellette et al., 2017]) grown at 37°C in LB medium, were diluted in fresh medium adjusting the OD600 to a value of 0.05 and incubated in the presence of twofold decreasing concentrations of the compounds ranging from 64 μg/mL to 62.5 ng/mL. After 24 h of incubation at 37°C, the OD600 was measured by a plate reader (EnSpire Multimode Plate Reader, PerkinElmer). The MIC value was determined as the lowest concentration of compound leading to no detectable growth.

[2] = tested on: permeabilized E. coli mutants (AS19 and NR698); assay: MIC, permeabilized E. coli mutants; assay type: cell-based, Escherichia coli; conditions: permeabilized mutant strains; in words
Protocol: as §3

LptC–LptAm interaction = assay: SPR, effect on LptC binding to immobilized LptAm; set-up: species or system Escherichia coli; conditions: peptide up to 1 μM followed by LptC injection at 10 μM, HBS-N, listed as Scr
Text: as §1, §2

LptC–LptAm complex = assay: NMR, disruption of LptC–LptAm complex; assay type: binding, Escherichia coli; conditions: 2D-[1H,13C]-methyl-SOFAST, 25°C, 20 μM LptC, 40 μM LptAm, 42 μM peptide, 50 mM Na2HPO4 pH 8.0, 150 mM NaCl, 10% D2O
Protocol: Nuclear magnetic resonance experiments were recorded at 25°C on Bruker 600 MHz spectrometer equipped with a triple resonance cryoprobe. […] Unlabeled LptAm at 40 μM prepared in the exact same buffer was added to LptC to achieve 100% of LptC complexed with LptAm. Thanatin or Scr at 42 μM was added to the complex and interaction experiments were followed using 2D-[^1H, ^13C]-methyl-SOFAST experiments. NMR experiments were processed and analyzed using Topspin 3.2 and CcpNmr 2.4.

[3] = tested on: LptC–LptAm interaction (T25LptC–TM18LptAm, CA); assay: BACTH assay, inhibition of LptC–LptAm interaction; assay type: cell-based, Escherichia coli; conditions: BTH101, 18 h, 30°C, 0.5 mM IPTG, 0.7, 1.0, 1.4 μg/mL (sub-MIC), at least eight technical replicates from two independent experiments
Protocol: (§4) To study protein–protein interactions with the BACTH system, electrocompetent BTH101 cells were co-transformed with each pair of plasmids to be tested (Figure 2A), plated onto LB plates containing selective antibiotics (100 μg/mL ampicillin and 50 μg/mL spectinomycin) and incubated at 30°C for 24–48 h. Interaction efficiencies were quantified by determining the β-galactosidase activities in 96-well microtiter plates according to a protocol adapted from [Paschos et al. (2011)]. For this measurement, at least eight clones from each plasmid combination were analyzed for β-galactosidase activity in two independent experiments. […] The β-galactosidase activity was measured from 20 μL culture diluted in 80 μL PM2 buffer (70 mM Na2HPO4. 12H20, 30 mM NaH2PO4. H2O, 1 mM MgSO4, 0.2 mM MnSO4, pH 7.0) containing 8 mg/mL ortho-nitrophenyl-β-galactoside (ONPG), 0.01% SDS, and 50 mM β-mercaptoethanol. […] The optical densities at 420 and 550 nm were recorded for each sample using a plate reader (EnSpire Multimode Plate Reader, PerkinElmer) and the specific activity was calculated with the formula: Miller units = [OD420 - (1.75 × OD550)]/[t × OD600 × (volume in mL)] × 1000, where OD600 is the optical density at 600 nm after overnight incubation and t is the time in minutes needed for color formation.

[4] = tested on: LptA–LptA interaction (TM25LptA–TM18LptA, AA); assay: BACTH assay, inhibition of LptA–LptA interaction; assay type: cell-based, Escherichia coli; conditions: BTH101, 18 h, 30°C, 0.5 mM IPTG, 0.7, 1.0, 1.4, 2.8 μg/mL (sub-MIC); at least eight technical replicates from two independent experiments
Protocol: as §4

E. coli BTH101 = assay: microbe, parasite or virus in culture; assay type: cell-based, Escherichia coli
Protocol: as §3

[5] = tested on: E. coli permeabilized mutant NR698; assay: microbe, parasite or virus in culture; assay type: cell-based, Escherichia coli; conditions: 24 h
Protocol: as §3

[6] = tested on: E. coli permeabilized mutant AS19; assay: microbe, parasite or virus in culture; assay type: cell-based, Escherichia coli; conditions: 24 h
Protocol: as §3

[7] = tested on: Pseudomonas aeruginosa LptD; conditions: ref Srinivas et al., 2010; Lehman and Grabowicz, 2019; cited from earlier work
Text: (§5) Due to its relevance in Gram-negative bacteria cell physiology, LPS biogenesis can be considered a promising target for the development of novel antibacterial molecules. Potent inhibitors of the lipid A biosynthesis were identified in past studies and are continuously in development ([Simpson and Trent, 2019]). Moreover, two compounds targeting the MsbA-mediated IM translocation process have been recently reported ([Ho et al., 2018]; [Zhang et al., 2018]). However, the only inhibitor of LPS biogenesis to have entered, so far, Phase III trials is Murepavadin, a macrocyclic peptidomimetic select ...

[8] = in vivo; cited from earlier work
Text: as §5

immobilized LptAm = assay: SPR, Kd of LptC–LptAm; set-up: species or system Escherichia coli; conditions: LptC (5.6–100 μM) over immobilized LptAm, CM3 chip, HBS-N, steady-state binding levels, read-out: Kd of LptC–LptAm interaction
Text: as §1, §2

[9] = target: T1, His6-LptC_(24-191), LptC lacking the first 23 residues of the transmembrane domain (Escherichia coli, UniProt P0ADV9 24-191); assay: SPR; conditions: both partners purified
T1 sequence (looked up): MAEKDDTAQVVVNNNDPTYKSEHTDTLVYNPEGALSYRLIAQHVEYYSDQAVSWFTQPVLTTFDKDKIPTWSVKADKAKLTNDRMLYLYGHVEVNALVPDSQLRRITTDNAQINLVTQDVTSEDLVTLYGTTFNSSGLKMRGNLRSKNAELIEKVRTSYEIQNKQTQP

Clc1cc2c(c3ncccc13)OCN(CCc1ccccc1)C2 [IMB-881]
bactericidal activity [1]: bactericidal activity | disruption of LptC–LptA interaction (LptC–LptA interaction): inhibiting LptC–LptA interaction; also recorded: disrupts LptC–LptA interaction

CC[C@H](C)[C@H](NC(=O)[C@H](CS)NC(=O)[C@@H](NC(=O)[C@@H](N)Cc1ccc(O)cc1)C(C)C)C(=O)N[C@@H](CCCNC(=N)N)C(=O)N[C@@H](CCSC)C(=O)N[C@@H](CC(N)=O)C(=O)N[C@@H](CCCCN)C(=O)N[C@H](C(=O)N[C@@H](CO)C(=O)N1CCC[C@H]1C(=O)N[C@@H](CCCCN)C(=O)N[C@@H](CCC(N)=O)C(=O)N[C@@H](CCCNC(=N)N)C(=O)N[C@H](C(=O)N1CCC[C@H]1C(=O)NCC(=O)NCC(=O)N[C@@H](CCCNC(=N)N)C(=O)N[C@@H](CS)C(=O)N[C@@H](CCCCN)C(=O)O)[C@@H](C)O)[C@@H](C)CC [Thanatin scramble] (H-YVCIRMNKISPKQRTPGGRCK-OH; N-terminus and C-terminus assumed)
binding to immobilized LptAm (LptAm): no or little binding | MIC (E. coli WT strain MG1655; MG1655, LB, 24 h, 37°C, start OD600 0.05, twofold dilutions 64 μg/mL to 62.5 ng/mL, OD600 read-out): above 64 μg/mL | antibacterial activity (E. coli WT strain MG1655; scrambled vs thanatin, in words): loses the antibacterial activity | MIC relative to WT strain / antibacterial activity [2]: no significant difference relative to the WT strain | effect on LptC binding to immobilized LptAm (LptC–LptAm interaction): no effect on LptC binding | disruption of LptC–LptAm complex (175Ile and 184Ile δ1 methyl shifts) (LptC–LptAm complex): did not change LptC–LptAm spectra; also recorded: fails to disrupt the LptC–LptA interaction in vivo (BACTH assay) and in vitro (NMR) | disruption of LptC–LptAm complex (175Ile and 184Ile δ1 methyl shifts) (LptC–LptAm complex; listed as thanatin scramble): no disruption of the LptC–LptAm complex | effect on LptC–LptAm interaction (β-galactosidase activity) [3]: fails to disrupt the LptC–LptA interaction in vivo (BACTH assay) | effect on LptC–LptAm interaction (β-galactosidase activity) ([3]; listed as thanatin scramble): not capable of disrupting these periplasmic interactions in a dose-dependent manner | effect on LptA–LptA interaction (β-galactosidase activity) [4]: not capable of disrupting these periplasmic interactions in a dose-dependent manner | MIC (E. coli BTH101; BTH101, LB, 24 h, 37°C, start OD600 0.05, twofold dilutions 64 μg/mL to 62.5 ng/mL, OD600 read-out): >64 µg/mL | MIC ([5]; NR698, LB, 37°C, start OD600 0.05, twofold dilutions 64 μg/mL to 62.5 ng/mL, OD600 read-out): 32 to 64 µg/mL | MIC ([6]; AS19, LB, 37°C, start OD600 0.05, twofold dilutions 64 μg/mL to 62.5 ng/mL, OD600 read-out): 64 µg/mL (≈ 26.3 µM)

CN[C@H](CC(C)C)C(=O)N[C@H]1C(=O)N[C@@H](CC(N)=O)C(=O)N[C@H]2C(=O)N[C@H]3C(=O)N[C@H](C(=O)N[C@H](C(=O)O)c4cc(O)cc(O)c4-c4cc3ccc4O)[C@H](O)c3ccc(c(Cl)c3)Oc3cc2cc(c3O[C@@H]2O[C@H](CO)[C@@H](O)[C@H](O)[C@H]2O[C@H]2C[C@](C)(N)[C@H](O)[C@H](C)O2)Oc2ccc(cc2Cl)[C@H]1O [Vancomycin, reference compound]
MIC (E. coli WT strain MG1655; Escherichia coli, MG1655, 24 h): > 64 µg/mL | MIC (E. coli BTH101; Escherichia coli, BTH101, 24 h): > 64 µg/mL | MIC ([5]; Escherichia coli): 0.5 to 1 µg/mL (≈ 0.345 to 0.69 µM) | MIC ([6]; Escherichia coli): 4 to 8 µg/mL (≈ 2.76 to 5.52 µM)

Murepavadin
target selectivity [7]: selectively directed against Pseudomonas aeruginosa LptD | clinical toxicity [8]: nephrotoxicity

B1: LptC: Escherichia coli LptC lacking the first 23 residues of the transmembrane domain, with an N-terminal His-Tag (protein, UniProt P0ADV9 24-191, looked up, fragment)
chain: T1 sequence (looked up)
modifications: N-terminal His-tag
notes: Escherichia coli LptC lacking the first 23 residues of the transmembrane domain, with an N-terminal His-Tag
Kd (immobilized LptAm): 80 ± 44 µM

B2: LptAm, LptA residues 28-159 followed by a … tag (purified) (domain or fragment, Escherichia coli, UniProt P0ADV1 28-159, looked up)
chain: VTGDTDQPIHIESDQQSLDMQGNVVTFTGNVIVTQGTIKINADKVVVTRPGGEQGKEVIDGYGKPATFYQMQDNGKPVEGHASQMHYELAKDFVVLTGNAYLQQVDSNIKGDKITYLVKEQKMQAFSDKGKR
notes: also called LptAΔ_(160–185)-His6; monomeric version of LptA; source: E. coli BL21(DE3) (pET21b vector), purified as described (Laguri et al., 2017)
Kd [9]: 80 ± 44 µM
